Assay in all cases: NCI anticancer screen, dose series, 48 h
Assay [1] concerns SNB-78 CNS.
In assay [2] the test system is SF-268 CNS.
Assay [3] deals with K-562 leukemia.
The subject of assay [4] is SK-MEL-2 melanoma.
In assay [5] the test system is ACHN renal.
The test system of assay [6] is XF 498 CNS.
Assay [7] deals with MOLT-4 leukemia.
In assay [8] the test system is U251 CNS.
Assay [9] has as its system RXF 393 renal.
The subject of assay [10] is MDA-MB-231 breast.

SMILES strings stand for the structures.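 Briefly, cells in 96-well plates were exposed to five compound concentrations for 48 h, and endpoints were estimated by linear interpolation. GI50: concentration for 50% inhibition of growth. TGI denotes the concentration required for complete inhibition of growth.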 Where only a bound is given, the exact number is not on record here.

Take `Cn1nc(-c2ccccc2)c2c(/C=C/c3ccccc3)onc2c1=O`: the TGI is greater than 100 µM in assay [1]; greater than 100 µM in assay [2]; greater than 100 µM in assay [3]; greater than 100 µM in assay [4]; greater than 100 µM in assay [5]; 72.4 µM in assay [6]. Besides, the TGI in [7], in assay [8] and in assay [9] was greater than 100 µM each time.

`CC1=C(C(=O)Nc2ccc(Cl)c(C(=O)OC(C)C)c2)SCCO1`: the TGI in assay [1] was greater than 100 µM; in assay [2], greater than 89.9 µM; in assay [3], greater than 90.2 µM; in assay [4], 75.4 µM; in [5] it was greater than 100 µM; in assay [6], greater than 91.3 µM. Besides, the TGI in assay [7] is 84.4 µM; in assay [8] it was 81.3 µM; in assay [9], greater than 97.7 µM; in assay [10] it was greater than 100 µM.

For the compound `NS(=O)(=O)OCCCCCCCOS(N)(=O)=O`, the TGI in [1] was determined as 2020 µM; in [2] it was 1290 µM; in [3], 2110 µM; in assay [4] it was 836 µM; in assay [5], 951 µM; in assay [6] it was 112 µM. The TGI in [7] came to 790 µM; in [8] it was 683 µM; in assay [9] it was 660 µM; in [10], 1030 µM.

`CCSc1c2ccccc2c(-c2nc(F)nc(F)n2)n1CCc1ccccc1`: the TGI in [1], in assay [2], in [3], in assay [4], in [5] and in assay [6] was greater than 100 µM each time. Moreover, the TGI in [7], in [8] and in assay [9] was greater than 100 µM throughout.

For the compound `CC1(c2ccc(Cl)cc2)C2C(=O)NC(=O)C1C(=O)NC2=O` (stereo unspecified), the TGI in assay [1], in [2], in assay [3], in [4], in assay [5] and in assay [6] was greater than 100 µM each time. In addition, the TGI in assay [7] and in assay [9] was greater than 100 µM each time.

Turning to `CC(=O)O[C@H]1CC[C@@]2(C)C(=CC[C@@H]3C2CC[C@]2(C)Nc4nc5ccccc5cc4CC32)C1` (stereo partly specified), the TGI turned out to be 21.1 µM in assay [1]; 14.9 µM in [2]; 11.6 µM in assay [3]; 31.7 µM in assay [4]; 16.9 µM in assay [5]; 18.5 µM in [6]. Also, the TGI in assay [7] worked out at 11.7 µM; in [8] it was 7.58 µM; in assay [9], 5.09 µM.

Regarding `Brc1ccc2ns[s+]c2c1`, the TGI in [1] is greater than 31.6 µM; in [2] it was greater than 100 µM; in assay [3], greater than 100 µM; in assay [4], greater than 100 µM; in assay [5] it was greater than 100 µM; in assay [6], greater than 100 µM. Also, the TGI in assay [7] is greater than 100 µM; in assay [8] it was greater than 31.6 µM; in assay [9], greater than 100 µM.

For the compound `CCOc1ccc(NC(=O)CC2C(=O)Nc3ccccc3S2(=O)=O)cc1` (stereo unspecified), the TGI in assay [1], in assay [2], in assay [3], in assay [4], in assay [5] and in [6] was greater than 100 µM in each case. For the same compound, the TGI in [7], in [8] and in assay [9] was greater than 100 µM each time.

For `Nc1c(Cl)ncnc1NCCCNc1ncnc(Cl)c1N`, the TGI in assay [1], in assay [2], in assay [3], in [4], in assay [5] and in assay [6] was greater than 100 µM in each case. In addition, the TGI in [7], in assay [8] and in assay [9] was greater than 100 µM throughout.

Take `O=C(NNc1ccccc1)/C(=C/c1ccc2c(c1)OCO2)NC(=O)c1ccccc1`: the TGI in assay [1], in [2], in assay [3], in [4], in assay [5] and in assay [6] was greater than 100 µM each time. Further, the TGI in [7], in [8] and in assay [9] was greater than 100 µM in each case.

Consider `NC(=O)NC1C(C(N)=O)N(Cc2ccccc2)C(=O)N1Cc1ccccc1` (stereo unspecified), for which the TGI in [1], in [2], in [3], in [4], in [5] and in assay [6] was greater than 100 µM throughout. Also, the TGI in assay [7] and in assay [8] was greater than 100 µM throughout.

Consider `COc1ccc(/C=C/C(=O)c2sc(-n3nc(-c4ccccc4)cc3-c3ccccc3)nc2C)cc1`, for which the GI50 in [2], in assay [4], in assay [5] and in [9] was greater than 100 µM throughout. Moreover, the TGI in [2], in assay [3], in assay [4], in assay [5], in [6] and in assay [7] was greater than 100 µM each time. Moreover, the TGI in [8] and in assay [9] was greater than 100 µM in each case.

For `CC(=O)C1=C(O)C2C3c4c[nH]c5cccc(c45)CC3C(C)(C)N2C1=O` (stereo unspecified), the TGI in [1] is greater than 100 µM; in [2] it was greater than 100 µM; in assay [3] it was greater than 100 µM; in assay [4] it was 44.6 µM; in [5], greater than 100 µM; in assay [6], greater than 100 µM. Moreover, the TGI in assay [7] and in [8] was greater than 100 µM each time.

With `C[C@]12CCC3[C@@H](CC[C@@H]4c5nonc5CC[C@]34C)C1CC[C@@H]2O` (stereo partly specified), the TGI in assay [1] was greater than 100 µM; in assay [2], greater than 100 µM; in [3], greater than 100 µM; in [4] it was 48.3 µM; in assay [5] it was 66.3 µM; in [6] it was 53.7 µM. The TGI in assay [7] worked out at 55.1 µM; in assay [8], 45.7 µM; in [9] it was 69.6 µM.

Consider `Cc1c(/C=N/N(C)C)oc2c1cc(O)c1ncccc12`, for which the TGI in [2] is greater than 100 µM; in assay [3], greater than 100 µM; in assay [4] it was 44.5 µM; in assay [5], greater than 100 µM; in assay [6], greater than 100 µM; in assay [7], 16.8 µM. The TGI in assay [8] was greater than 100 µM; in [9], 58.6 µM.

For the compound `CC(=O)NC(CC(C)C)C(=O)NC(Cc1ccccc1)C(=S)N1CCCC1` (stereo unspecified), the TGI in [2], in assay [3], in assay [4], in assay [5], in assay [6] and in [7] was greater than 100 µM in each case. Further, the TGI in [8] and in assay [9] was greater than 100 µM throughout.

Regarding `CC(=O)OC1COC(n2c(=S)n(-c3ccccc3)c(=O)c3ccccc32)C(OC(C)=O)C1OC(C)=O` (stereo unspecified), the TGI in assay [1], in assay [2], in assay [3], in assay [4], in assay [5] and in assay [6] was greater than 100 µM throughout. In addition, the TGI in assay [7], in assay [8] and in [9] was greater than 100 µM each time.

Regarding `Cc1ccc(S(=O)(=O)N/N=C(/c2nc3ccc([N+](=O)[O-])cc3[nH]c2=O)C(O)c2ccc(C(O)/C(=N\NS(=O)(=O)c3ccc(C)cc3)c3nc4ccc([N+](=O)[O-])cc4[nH]c3=O)cc2)cc1` (stereo unspecified), the TGI in assay [1], in assay [3], in assay [4], in assay [5], in [6] and in [7] was greater than 100 µM throughout. In addition, the TGI in assay [8] and in [9] was greater than 100 µM each time.

Regarding `CC(C)(C)C(C#N)(C#N)c1ccc(C(C#N)(C#N)C(C)(C)C)nn1`, the TGI in assay [1], in [2], in assay [3], in [4], in assay [5] and in assay [6] was greater than 100 µM each time. The TGI in assay [7] and in assay [9] was greater than 100 µM each time.

Consider `O=C(Nc1nc2c(ncn2C2OC(CO)C(O)C2O)c(=O)[nH]1)c1ccccc1` (stereo unspecified), for which the TGI in [1], in [2], in assay [3], in assay [4], in assay [5] and in [6] was greater than 100 µM each time. Also, the TGI in [8] and in assay [9] was greater than 100 µM in each case.

`O=P(O)(O)C1(P(=O)(O)O)CC1`: the TGI in assay [1], in assay [2], in [3], in assay [4], in assay [5] and in [6] was greater than 100 µM each time. The TGI in assay [7], in [8] and in assay [9] was greater than 100 µM in each case.

For `CCCCCCC[CH2][Sn]1([CH2]CCCCCCC)[O]C(=O)c2cccnc2[O]1`, the GI50 in [1] is greater than 100 µM; in assay [3], greater than 100 µM; in assay [4] it was greater than 100 µM; in assay [5] it was greater than 100 µM; in assay [6] it was 42.3 µM; in assay [7], greater than 100 µM. Further, the GI50 in [8] and in [9] was greater than 100 µM each time. The TGI in assay [1], in [3], in assay [4], in [5], in assay [6] and in assay [7] was greater than 100 µM each time. Further, the TGI in assay [8] and in assay [9] was greater than 100 µM in each case.

`Nc1ncnc2c1ncn2C1CC(OCc2ccccc2[N+](=O)[O-])C(CO)O1` (stereo unspecified): the TGI in assay [1] was greater than 50 µM; in assay [2] it was greater than 50 µM; in assay [3] it was greater than 50 µM; in assay [4] it was greater than 50 µM; in assay [5] it was 47.6 µM; in assay [6], greater than 50 µM. Also, the TGI in assay [7] was greater than 50 µM; in assay [8], greater than 50 µM; in assay [9] it was 21.4 µM.

The values are drawn from PubChem BioAssay (NCI).
